From patent US7091238B1, “Thienylhydrazon with digitalis-like properties (positive inotropic effects)” (University of Maryland, priority 1999, dated 2006)

Columns and labels:
isolated hearts = experiment: Isometric (twitch) tension in isolated hearts under pre-load; design: species or system rat; settings: 50 μM in bathing solution; pre-load of 1 g; vs control and wash
Protocol: FIG. 5. Recordings of twitch tension in isolated hearts. Control (top), LASSBio-294 (middle) and wash (bottom).
a Recordings of electrocardiogram (ECG) of isolated rat heart are shown in FIG. 4 which compare control, LASSBio-294 treatment, 10 uM, 50 μM and 100 μM and post-treatment wash. […] FIG. 5 illustrates a test of change in isometric tension induced by LASSBio-294 in isolated hearts under preload. Concentration of LASSBio-294 in the bathing solution is 50 μM, which is half of the highest concentration tested in the ECG tests described in FIG. 4. Hearts were treated under a pre-load of 1 g; control was compared to LASSBio-294 and wash. […] This effect was lost in the wash out period. The pre-load tension test is considered to be an animal model of congestive heart disease. Comparing the effect of drugs with this test is predictive of therapeutic effect of treatment in human congestive heart disease. General Method
Hearts were quickly removed and placed in an aorta retrograde perfusion system for measurement of ECG. Increasing concentrations of LASSBio-294 were added to the bathing solution. The system equilibrated for 5 min. before measurement of isometric tension after each addition.

[1] = tested on: contractile system of cardiac fibers; experiment: Ca2+-induced tension in Triton X-100 treated left ventricular muscle bundles; design: species or system Wistar rats
Protocol: FIG. 12. Muscle bundles were treated with 1% Triton X-100 for 60 min and exposed to solutions containing increasing concentrations of Ca^2+ in the presence or absence of LASSBio-294 (100 μM). Calibration: Vertical, 10 mm=20 mg; Horizontal, 10 mm=40 sec.
FIG. 13. Bundles of left ventricular muscles were treated with Triton X-100 and exposed to increasing concentrations of Ca^2+. Muscle tension expressed as % of the maximal response induced by 0.5 mM CaCl2 is graphed as a function of pCa.
b. Graphic representation of the tests in FIG. 7 showing the effect of LASSBio-294 on uptake of Ca^2+ by sarcoplasmic reticulum in isolated cardiac muscle with sarcolemma removed. FIG. 9 illustrates the effect of LASSBio-294 on tension in isolated cardiac muscle with sarcolemma removed was measured. Measurement of contraction induced by caffeine, as a function concentration of LASSBio-294 in bathing solution. FIG. 9 is a graphic representation of the effect of increasing concentrations of LASSBio-294 between 0 and 20 μM. […] FIG. 12 illustrates the effect of LASSBio-294 on sensitivity of cardiac fibers to calcium. Calcium levels can induce isometric twitch. […]
Bundles of left ventricular muscle (130 μm diameter and 1–2 mm in thickness) from Wistar rats were dissected out and mounted for measurement of isometric tension. […] Comparison of caffeine alone to caffeine in the presence of LASSBio-294 was measured.

single muscle fiber = experiment: Twitch tension in single amphibian muscle fibers; assay type: cell-based, frog, rana pipiens
Protocol: FIG. 15. Effect of 12.5 μM of compound 294 on force development in a single muscle fiber stimulated at different frequencies. The frequency of stimulation in Hz is indicated under each trace. Top panel, stimulating cycle done in Ringer without compound 294. Middle panel, stimulating cycle done 17 min after the fiber was bathed with compound 294. Bottom panel, second cycle of stimulation done 17 min after compound 294 was washed out with Ringer. Force calibration bars are 50 mg for twitches and 10 Hz simulations and 100 mg for 30, 60, and 90 Hz.
FIG. 16. Histogram showing the effect of 12.5 μM compound 294 and after washing out LASSBio-294 on fractional twitch tension (Tx/To). Tx represents the twitch tension obtained when the fiber was bathed with the solutions indicated above each column. The order of the columns are the order in which the simulating cycles were performed.
The tests in amphibians were performed in isolated single muscle cells freshly isolated from either the semitendinous or the tibialis anterior muscles of the frog, rana pipiens. The isolated muscle cells were left resting for at least half an hour in Ringer's solution. The fibers were then stimulated with single, low-voltage, electric shocks. If fibers gave brisk twitches and had no signs of membrane damage, they were used. Otherwise, they were discarded. Healthy fibers were transferred to the experimental chamber, which consisted of a 0.3 ml narrow channel where the solutions could be changed several times within five seconds. One tendon of the fiber was gripped with a small clamp and the other tendon was attached to a hook of an Ekhart;s type force transducer. The stimulating electrode consisted of platinum wires placed to each side of the fiber. The muscle fibers were stretched 1.3 times their slack length to reach approximately an average sarcomere length of 1.6 μm.
The fibers were stimulated with single electric pulses of 0.5 msec duration and variable voltage. The voltage was increased until the threshold for contraction was reached. This voltage was then increased by 50% and the experimental protocol started. To find out if LASSBio-294 has an effect on contractility, a stimulating protocol was used consisting of a series of single twitches elicited every 3 sec. followed by different frequencies of tetanic stimulation of 10 Hz, 30 Hz, and 60 Hz. The fibers rested for three minutes between each tetanic stimulation. When the whole series of stimulations were repeated, the fibers rested for 10 min. between each series of twitches and tetanic stimulations. Fatigue was induced by repetitive cycles of electrical stimulation. Each cycle consisted of a train of electric shocks delivered at 60 Hz for 0.8 sec followed by a single twitch after 2.2 sec and repeated every 4.15 sec. […]. […]

## O=C(NN=Cc1cccs1)c1ccc2c(c1)OCO2 [LASSBio-294, 3,4-methylenedioxybenzoyl-2-thienylhydrazone]
Isolated hearts
  isometric tension: increase in isometric tension compared to control
[1]
  sensitivity of muscle fibers to calcium: does not change
[1]; Triton X-100 treated fibers, 100 μM vs control
  isometric twitch response at each level of pCa: greater in the presence of LASSBio-294 than in control
Single muscle fiber; 12.5 μM, second stimulation cycle, 17 min in compound
  increase of twitch tension vs control: ~50%
Single muscle fiber; 12.5 μM, three minutes after bathing
  increase of twitch peak tension vs control: approximately 25%
Single muscle fiber; 17 min in Ringer after washing away 12.5 μM compound
  twitch tension potentiation vs control after wash out: approximately 77%
Single muscle fiber; fiber exposed again to 12.5 μM after wash out
  twitch force on re-exposure: decrease in twitch force
